One experiment has as its target T1, OX1 (Homo sapiens, UniProt O43613).
T1 sequence (O43613 1-425): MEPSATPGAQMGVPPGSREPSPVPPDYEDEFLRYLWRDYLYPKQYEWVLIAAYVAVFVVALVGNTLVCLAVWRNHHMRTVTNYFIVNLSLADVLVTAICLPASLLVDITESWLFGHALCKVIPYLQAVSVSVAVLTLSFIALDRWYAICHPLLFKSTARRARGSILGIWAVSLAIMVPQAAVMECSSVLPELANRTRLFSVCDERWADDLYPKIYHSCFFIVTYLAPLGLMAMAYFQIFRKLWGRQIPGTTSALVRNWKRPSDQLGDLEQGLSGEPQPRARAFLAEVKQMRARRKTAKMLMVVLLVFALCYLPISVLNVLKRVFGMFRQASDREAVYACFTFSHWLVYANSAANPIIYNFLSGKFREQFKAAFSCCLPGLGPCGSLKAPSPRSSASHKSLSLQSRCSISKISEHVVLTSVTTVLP
The experiment in a line: Measurement of orexin receptor-binding ability ([125I]-OX-A, cell membranes, OX1). Also on record: expressed in transfected cells; host or cells: CHO cells (membrane preparation). The procedure:
1. Measurement of Orexin Receptor-Binding Ability
The assay was carried out using a 96-well Wheat Germ Agglutinin Flash Plate (PerkinElmer). The volume in a single assay well was 100 ul, and the composition of the reaction solution was as follows:
25 mM HEPES (pH 7.5), 1 mM CaCl2, 4.5 mM MgCl2, 0.5% BSA (bovine serum albumin), 0.1% sodium azide, 0.05% Tween-20, and 0.2% DMSO.
Cell membranes were prepared from recombinant CHO cells that expressed OX2 or OX1. The cell membranes were used in an amount of 5 μg protein/assay. […] Finally, the radioactivity of each well was measured using a scintillation counter (TopCount, PerkinElmer).

A further experiment concerns the target T2, OX2 (Homo sapiens, UniProt O43614).
T2 sequence (O43614 1-444): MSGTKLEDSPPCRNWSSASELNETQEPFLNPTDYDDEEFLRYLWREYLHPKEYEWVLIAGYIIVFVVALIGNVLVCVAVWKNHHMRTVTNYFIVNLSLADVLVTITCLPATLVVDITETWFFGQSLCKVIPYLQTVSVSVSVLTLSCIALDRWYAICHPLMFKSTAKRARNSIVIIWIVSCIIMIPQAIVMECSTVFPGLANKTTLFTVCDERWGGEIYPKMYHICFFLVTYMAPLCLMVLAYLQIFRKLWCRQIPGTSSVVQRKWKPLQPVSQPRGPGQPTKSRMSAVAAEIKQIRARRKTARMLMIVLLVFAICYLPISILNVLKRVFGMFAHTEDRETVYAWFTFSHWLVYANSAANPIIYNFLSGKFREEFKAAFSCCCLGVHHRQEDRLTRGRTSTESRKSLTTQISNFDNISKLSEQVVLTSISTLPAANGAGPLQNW
As to the kind of experiment: Measurement of orexin receptor-binding ability ([125I]-OX-A, cell membranes, OX2). As to conditions: membranes of recombinant CHO cells expressing OX2, 0.2 nM [125I]-OX-A. Also on record: expressed in transfected cells; host or cells: CHO cells (membrane preparation).

The mark [1] stands for this setting: membranes of recombinant CHO cells expressing OX1, 0.2 nM [125I]-OX-A, read-out: OX1 (IC50).

Where two headings read alike, the source gives them in different places.

The term IC50 denotes the concentration needed to halve the response being measured. For `COc1cncc(NC(=O)[C@@H]2C[C@@]2(COc2cnc(C)nc2C)c2cccc(F)c2)c1` [Example 89], the IC50 came out at 161 nM on OX1 and 14 nM on OX2 (OX2 (IC50) nM).
As for `Cc1ncc(OC[C@@]2(c3cccc(F)c3)C[C@H]2C(=O)Nc2ccncc2)c(C)n1` [Example 90], the IC50 at OX1 was 2060 nM; on OX2 (OX2 (IC50) nM) it was 95 nM.
Taken in the same sequence, the figures for `Cc1ncc(OC[C@@]2(c3cccc(F)c3)C[C@H]2C(=O)Nc2cnc(F)c(C)c2)c(C)n1` [Example 91] were 215 nM and 22 nM.
In the same order, the values of `Cc1ncc(OC[C@@]2(c3cccc(F)c3)C[C@H]2C(=O)Nc2ccc(F)cc2)c(C)n1` [Example 92, (1R,2S)-2-{[(2,4-dimethylpyrimidin-5-yl)oxy]methyl}-2-(3-fluorophenyl)-N-(4-fluorophenyl)cyclopropanecarboxamide] are 23 nM and 8 nM.
For `Cc1ncc(OC[C@@]2(c3cccc(F)c3)C[C@H]2C(=O)Nc2ccccc2)c(C)n1` [Example 93, (1R,2S)-2-{[(2,4-dimethylpyrimidin-5-yl)oxy]methyl}-2-(3-fluorophenyl)-N-phenylcyclopropanecarboxamide], the IC50 on OX1 was determined as 54 nM; on OX2 (OX2 (IC50) nM), 9 nM.
Taken in the same sequence, the figures for `COc1cc(NC(=O)[C@@H]2C[C@@]2(COc2cnc(C)nc2C)c2cccc(F)c2)ncc1F` [Example 94, (1R,2S)-2-{[(2,4-dimethylpyrimidin-5-yl)oxy]methyl}-N-(5-fluoro-4-methoxypyridin-2-yl)-2-(3-fluorophenyl)cyclopropanecarboxamide] were 2.8 nM and 2.3 nM.
In the same order, the values of `Cc1ncc(OC[C@@]2(c3cccc(F)c3)C[C@H]2C(=O)Nc2ccnc(F)c2)c(C)n1` [Example 97] are 105 nM and 21 nM.
In the same order, the values of `Cc1ncc(OCC2(c3cccc(F)c3)CC2C(=O)Nc2cccnc2)c(C)n1` (centres unmarked) [Example 99] are 644 nM and 58 nM.
In the case of `Cc1ncc(OCC2(c3ccc(F)cc3)CC2C(=O)Nc2ccc(C#N)cn2)c(C)n1` (centres unmarked) [Example 101], the IC50 on OX1 (setting [1]) amounted to 290 nM; at OX2 (read-out: OX2 (IC50)), 84 nM.
Turning to `Cc1ncc(OCC2(c3ccc(F)cc3)CC2C(=O)Nc2ccc(Cl)cn2)c(C)n1` (centres unmarked) [Example 102], the 50% inhibitory concentration (IC50) on OX1 stood at 50 nM; at OX2 (OX2 (IC50) nM), 23 nM.
Regarding `Cc1ncc(OCC2(c3ccc(F)cc3)CC2C(=O)Nc2cccnc2)c(C)n1` (centres unmarked) [Example 103], the IC50 at OX1 (setting [1]) was 2940 nM; at OX2 (read-out: OX2 (IC50)), 96 nM.
In the same order, the values of `COc1cc(NC(=O)[C@@H]2C[C@@]2(COc2cnc(C)nc2C)c2ccc(F)cc2)ncc1F` [Example 104] are 4 nM and 4.3 nM.
In the case of `COCc1cc(NC(=O)[C@@H]2C[C@@]2(COc2cnc(C)nc2C)c2ccc(F)cc2)ncc1F` [Example 109, (1R,2S)-2-{[(2,4-dimethylpyrimidin-5-yl)oxy]methyl}-N-(5-fluoro-4-methoxymethylpyridin-2-yl)-2-(4-fluorophenyl)cyclopropanecarboxamide], the IC50 on OX1 was found to be 12 nM; at OX2 (OX2 (IC50) nM) it was 5.8 nM.
Taken in the same sequence, the figures for `Cc1ncc(OC[C@@]2(c3ccc(F)cc3)C[C@H]2C(=O)Nc2ccccn2)c(C)n1` [Example 110] were 340 nM and 110 nM.
For `Cc1ncc(OC[C@@]2(c3ccc(F)cc3)C[C@H]2C(=O)Nc2cc(C)c(F)cn2)c(C)n1` [Example 111, (1R,2S)-2-{[(2,4-dimethylpyrimidin-5-yl)oxy]methyl}-N-(5-fluoro-4-methylpyridin-2-yl)-2-(4-fluorophenyl)cyclopropanecarboxamide], the IC50 came out at 34 nM on OX1 (setting [1]) and 6 nM at OX2 (read-out: OX2 (IC50)).
For the compound `COc1cncc(NC(=O)[C@@H]2C[C@@]2(COc2cnc(C)nc2C)c2ccc(F)cc2)c1` [Example 112], the IC50 on OX1 (setting [1]) stood at 1020 nM; on OX2 (read-out: OX2 (IC50)) it was 18 nM.
